Experimental data reported in ChEMBL document CHEMBL4420076, “Amylin and calcitonin receptor agonist” (2017).
Numbered stars: 1 amine (or outer) side, 2 acyl side, 3 side chain; on linkers, the order of the positions; unused ones are H or OH. Peptide text beside a SMILES is read from it. * marks the point of attachment. C20 diacid = O=C(O)CCCCCCCCCCCCCCCCCCC(=O)*; γGlu = O=C(O)[C@H](CCC(=O)[*:2])N[*:1]; AEEA = NCCOCCOCC(=O)O

Tests used:
Calcitonin receptor [1] = target: T1, Calcitonin receptor (Homo sapiens, UniProt P30988); assay: Agonist activity at human calcitonin receptor expressed in BHK570 cells assessed as increase in intracellular cAMP concentration incubated for 3 hrs in absence of albumin by CRE luciferase reporter gene assay; format: functional, cell-based
T1 sequence (P30988 whole entry): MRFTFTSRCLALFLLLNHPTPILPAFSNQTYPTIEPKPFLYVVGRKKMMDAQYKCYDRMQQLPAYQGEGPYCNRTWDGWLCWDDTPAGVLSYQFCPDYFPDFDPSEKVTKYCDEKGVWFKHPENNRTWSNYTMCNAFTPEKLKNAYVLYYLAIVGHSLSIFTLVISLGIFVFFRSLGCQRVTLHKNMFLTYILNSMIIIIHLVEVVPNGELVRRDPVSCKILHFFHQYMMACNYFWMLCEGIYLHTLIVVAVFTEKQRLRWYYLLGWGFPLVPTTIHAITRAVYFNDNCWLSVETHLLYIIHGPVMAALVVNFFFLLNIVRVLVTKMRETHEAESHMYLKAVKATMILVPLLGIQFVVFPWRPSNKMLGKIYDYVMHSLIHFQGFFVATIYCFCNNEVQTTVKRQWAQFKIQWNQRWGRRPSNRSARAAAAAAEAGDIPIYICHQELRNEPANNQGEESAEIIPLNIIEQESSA

[2] = target: T2, Amylin receptor AMY3; CALCR/RAMP3 (Homo sapiens, UniProt O60896+P30988); assay: Agonist activity at human amylin receptor expressed in BHK570 cells co-expressing RAMP3 assessed as increase in intracellular cAMP concentration incubated for 3 hrs in presence of 10% FBS by CRE luciferase reporter gene assay; format: functional, cell-based
T2 sequence (P30988 whole entry): T1 sequence (P30988 whole entry)
T2 sequence (O60896 whole entry): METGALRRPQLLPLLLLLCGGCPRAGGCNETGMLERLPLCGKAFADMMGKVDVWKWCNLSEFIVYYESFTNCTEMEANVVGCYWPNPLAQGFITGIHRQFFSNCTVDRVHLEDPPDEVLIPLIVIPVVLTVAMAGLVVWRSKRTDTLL

Calcitonin receptor [3] = target: T1, Calcitonin receptor; assay: Agonist activity at human calcitonin receptor expressed in BHK570 cells assessed as increase in intracellular cAMP concentration incubated for 3 hrs in presence of 10% FBS by CRE luciferase reporter gene assay; format: functional, cell-based
[4] = Stability in pH 7.5 buffer assessed as lag time for fibril formation at 1 uM by Thioflavin T based fluorescence assay; format: physicochemical; conditions: pH 7.5, 1 µM
[5] = Stability in pH 7.5 buffer assessed as compound recovery at 1 uM by Thioflavin T based fluorescence assay; format: physicochemical; conditions: read-out: Drug recovery
[6] = Solubility in 100 mM glycylglycine buffer at pH 3.0 incubated for 18 hrs by UPLC analysis; format: physicochemical
[7] = Solubility in 100 mM glycylglycine buffer at pH 4.0 incubated for 18 hrs by UPLC analysis; format: physicochemical
[8] = Solubility in 100 mM bistrispropane buffer at pH 6.0 incubated for 18 hrs by UPLC analysis; format: physicochemical
[9] = Solubility in 100 mM glycylglycine buffer at pH 5.0 incubated for 18 hrs by UPLC analysis; format: physicochemical
[10] = Solubility in 100 mM bistrispropane buffer at pH 6.5 incubated for 18 hrs by UPLC analysis; format: physicochemical
[11] = Solubility in 100 mM bistrispropane buffer at pH 7.0 incubated for 18 hrs by UPLC analysis; format: physicochemical
[12] = Solubility in 100 mM bistrispropane buffer at pH 7.5 incubated for 18 hrs by UPLC analysis; format: physicochemical
[13] = Solubility in 100 mM bistrispropane buffer at pH 8.0 incubated for 18 hrs by UPLC analysis; format: physicochemical
[14] = target: T2, Amylin receptor AMY3; CALCR/RAMP3; assay: Agonist activity at human amylin receptor expressed in BHK570 cells co-expressing RAMP3 assessed as increase in intracellular cAMP concentration incubated for 3 hrs in absence of albumin by CRE luciferase reporter gene assay; format: functional, cell-based
[15] = target: T2, Amylin receptor AMY3; CALCR/RAMP3; assay: Displacement of [125I]-labeled rat amylin from human amylin receptor expressed in BHK tkts13 whole cells co-expressing RAMP3 incubated for 60 mins by scintillation proximity assay; format: cell-based

EC50 (Calcitonin receptor [1]) [pM]	EC50 [2] [pM]	EC50 (Calcitonin receptor [3]) [pM]	Time [4] [h]	remaining at 1 µM [5] [%]	solubility at 18 h [6] [µM]	solubility at 18 h [7] [µM]	solubility at 18 h [8] [µM]	solubility at 18 h [9] [µM]	solubility at 18 h [10] [µM]	solubility at 18 h [11] [µM]	solubility at 18 h [12] [µM]	solubility at 18 h [13] [µM]	EC50 [14] [pM]	IC50 [15] [pM]	SMILES
40		102	> 45	100	≥ 200	≥ 200	≥ 200	≥ 200	≥ 200	≥ 200	≥ 200	≥ 200	67	1890	CC(C)C[C@H](NC(=O)[C@H](C)NC(=O)[C@H](C)NC(=O)[C@@H](NC(=O)[C@H](CO)NC(=O)[C@H](CC(C)C)NC(=O)[C@H](CCC(=O)O)NC(=O)[C@H](CO)NC(=O)[C@H](C)NC(=O)CC[C@H](NC(=O)CCCCCCCCCCCCCCCCCCC(=O)O)C(=O)O)[C@@H](C)O)C(=O)NCC(=O)N[C@@H](CCCNC(=N)N)C(=O)N[C@@H](CC(C)C)C(=O)N[C@@H](CO)C(=O)N[C@@H](C)C(=O)N[C@@H](CCC(=O)O)C(=O)N[C@@H](CC(C)C)C(=O)N[C@@H](Cc1cnc[nH]1)C(=O)N[C@@H](CCC(=O)O)C(=O)N[C@@H](CC(C)C)C(=O)N[C@@H](C)C(=O)N[C@H](C(=O)N[C@@H](CC(C)C)C(=O)N1CCC[C@H]1C(=O)N[C@@H](CCCNC(=N)N)C(=O)N[C@H](C(=O)N[C@@H](CCC(=O)O)C(=O)N[C@H](C(=O)NCC(=O)N[C@@H](CO)C(=O)NCC(=O)N[C@@H](CO)C(=O)N[C@@H](C)C(N)=O)[C@@H](C)O)[C@@H](C)O)[C@@H](C)O ({C20 diacid-γGlu}-ASELSTAALGRLSAELHELATLPRTETGSGSA-NH2)
	67	36	1	16	≥ 200	≥ 200	≥ 200		≥ 200	≥ 200	≥ 200	≥ 200	62		CC(C)C[C@H](NC(=O)[C@H](CCCNC(=N)N)NC(=O)CNC(=O)[C@H](CC(C)C)NC(=O)[C@@H](NC(=O)[C@H](C)NC(=O)[C@@H](NC(=O)[C@H](CO)NC(=O)[C@H](CC(C)C)NC(=O)[C@H](CCC(N)=O)NC(=O)[C@H](CO)NC(=O)[C@H](C)NC(=O)CC[C@H](NC(=O)CCCCCCCCCCCCCCCCCCC(=O)O)C(=O)O)[C@@H](C)O)C(C)C)C(=O)N[C@@H](CO)C(=O)N[C@@H](CCC(N)=O)C(=O)N[C@@H](CCC(=O)O)C(=O)N[C@@H](CC(C)C)C(=O)N[C@@H](Cc1cnc[nH]1)C(=O)N[C@@H](CCC(=O)O)C(=O)N[C@@H](CC(C)C)C(=O)N[C@@H](CCC(N)=O)C(=O)N[C@H](C(=O)N[C@@H](Cc1ccc(O)cc1)C(=O)N1CCC[C@H]1C(=O)N[C@@H](CCCNC(=N)N)C(=O)N[C@H](C(=O)N[C@@H](CCC(=O)O)C(=O)N[C@H](C(=O)NCC(=O)N[C@@H](CO)C(=O)N[C@@H](CCC(N)=O)C(=O)N[C@H](C(=O)N[C@@H](Cc1ccc(O)cc1)C(N)=O)[C@@H](C)O)[C@@H](C)O)[C@@H](C)O)[C@@H](C)O ({C20 diacid-γGlu}-ASQLSTAVLGRLSQELHELQTYPRTETGSQTY-NH2)

Continued, compound first:

SMILES	EC50 (Calcitonin receptor [1]) [pM]	EC50 [2] [pM]	EC50 (Calcitonin receptor [3]) [pM]	Time [4] [h]	remaining at 1 µM [5] [%]	solubility at 18 h [6] [µM]	solubility at 18 h [7] [µM]	solubility at 18 h [8] [µM]	solubility at 18 h [9] [µM]	solubility at 18 h [10] [µM]	solubility at 18 h [11] [µM]	solubility at 18 h [12] [µM]	solubility at 18 h [13] [µM]	EC50 [14] [pM]	IC50 [15] [pM]
CC(C)C[C@H](NC(=O)[C@H](C)NC(=O)[C@H](C)NC(=O)[C@@H](NC(=O)[C@H](CO)NC(=O)[C@H](CC(C)C)NC(=O)[C@H](CCC(=O)O)NC(=O)[C@H](CO)NC(=O)[C@H](C)NC(=O)COCCOCCNC(=O)COCCOCCNC(=O)COCCOCCNC(=O)COCCOCCNC(=O)CC[C@H](NC(=O)CCCCCCCCCCCCCCCCCCC(=O)O)C(=O)O)[C@@H](C)O)C(=O)NCC(=O)N[C@@H](CCCNC(=N)N)C(=O)N[C@@H](CC(C)C)C(=O)N[C@@H](CO)C(=O)N[C@@H](C)C(=O)N[C@@H](CCC(=O)O)C(=O)N[C@@H](CC(C)C)C(=O)N[C@@H](Cc1cnc[nH]1)C(=O)N[C@@H](CCC(=O)O)C(=O)N[C@@H](CC(C)C)C(=O)N[C@@H](C)C(=O)N[C@H](C(=O)N[C@@H](CC(C)C)C(=O)N1CCC[C@H]1C(=O)N[C@@H](CCCNC(=N)N)C(=O)N[C@H](C(=O)N[C@@H](CCC(=O)O)C(=O)N[C@H](C(=O)NCC(=O)N[C@@H](CO)C(=O)NCC(=O)N[C@@H](CO)C(=O)N1CCC[C@H]1C(N)=O)[C@@H](C)O)[C@@H](C)O)[C@@H](C)O ({C20 diacid-γGlu-AEEA-AEEA-AEEA-AEEA}-ASELSTAALGRLSAELHELATLPRTETGSGSP-NH2)	13	62	25	> 45	100	≥ 200	≥ 200	≥ 200	≥ 200	≥ 200	≥ 200	≥ 200	≥ 200		
CC(C)C[C@H](NC(=O)[C@H](CO)NC(=O)CNC(=O)[C@H](CO)NC(=O)CNC(=O)[C@@H](NC(=O)[C@H](CCC(=O)O)NC(=O)[C@@H](NC(=O)[C@H](CCCNC(=N)N)NC(=O)[C@@H]1CCCN1C(=O)[C@H](CC(C)C)NC(=O)[C@@H](NC(=O)[C@H](C)NC(=O)[C@H](CC(C)C)NC(=O)[C@H](CCC(=O)O)NC(=O)[C@H](Cc1cnc[nH]1)NC(=O)[C@H](CC(C)C)NC(=O)[C@H](CCC(=O)O)NC(=O)[C@H](C)NC(=O)[C@H](CO)NC(=O)[C@H](CC(C)C)NC(=O)[C@H](CCCNC(=N)N)NC(=O)CNC(=O)[C@H](CC(C)C)NC(=O)[C@H](C)NC(=O)[C@H](C)NC(=O)[C@@H](NC(=O)[C@H](CO)NC(=O)[C@H](CC(C)C)NC(=O)[C@H](CCC(=O)O)NC(=O)[C@H](CO)NC(=O)[C@H](C)NC(=O)CC[C@H](NC(=O)CCCCCCCCCCCCCCCCCCC(=O)O)C(=O)O)[C@@H](C)O)[C@@H](C)O)[C@@H](C)O)[C@@H](C)O)C(N)=O ({C20 diacid-γGlu}-ASELSTAALGRLSAELHELATLPRTETGSGSL-NH2)	31			> 45	100	≥ 200	≥ 200	≥ 200	≥ 200	≥ 200	≥ 200	≥ 200	≥ 200		3050
CC(C)C[C@H](NC(=O)[C@H](C)NC(=O)[C@H](C)NC(=O)[C@@H](NC(=O)[C@H](CO)NC(=O)[C@H](CC(C)C)NC(=O)[C@H](CCC(=O)O)NC(=O)[C@H](CO)NC(=O)[C@H](C)NC(=O)CC[C@H](NC(=O)CCCCCCCCCCCCCCCCCCC(=O)O)C(=O)O)[C@@H](C)O)C(=O)NCC(=O)N[C@@H](CCCNC(=N)N)C(=O)N[C@@H](CC(C)C)C(=O)N[C@@H](CO)C(=O)N[C@@H](C)C(=O)N[C@@H](CCC(=O)O)C(=O)N[C@@H](CC(C)C)C(=O)N[C@@H](Cc1cnc[nH]1)C(=O)N[C@@H](CCC(=O)O)C(=O)N[C@@H](CC(C)C)C(=O)N[C@@H](C)C(=O)N[C@H](C(=O)N[C@@H](CC(C)C)C(=O)N1CCC[C@H]1C(=O)N[C@@H](CCCNC(=N)N)C(=O)N[C@H](C(=O)N[C@@H](CCC(=O)O)C(=O)N[C@H](C(=O)NCC(=O)N[C@@H](CO)C(=O)NCC(=O)N[C@@H](CO)C(=O)N[C@@H](CO)C(N)=O)[C@@H](C)O)[C@@H](C)O)[C@@H](C)O ({C20 diacid-γGlu}-ASELSTAALGRLSAELHELATLPRTETGSGSS-NH2)	38		154	> 45	100	≥ 200	≥ 200	≥ 200	≥ 200	≥ 200	≥ 200	≥ 200	≥ 200	63	4070
